From patent US20240116985A1, “STAPLED PEPTIDES AND METHODS THEREOF” (priority 2020, published 2024)

Target: T1, full-length beta-Catenin (Uniprot ID P35222) (Homo sapiens, UniProt P35222)
T1 construct: 10 nM full-length beta-Catenin (Uniprot ID P35222)
T1 sequence (P35222 1-781): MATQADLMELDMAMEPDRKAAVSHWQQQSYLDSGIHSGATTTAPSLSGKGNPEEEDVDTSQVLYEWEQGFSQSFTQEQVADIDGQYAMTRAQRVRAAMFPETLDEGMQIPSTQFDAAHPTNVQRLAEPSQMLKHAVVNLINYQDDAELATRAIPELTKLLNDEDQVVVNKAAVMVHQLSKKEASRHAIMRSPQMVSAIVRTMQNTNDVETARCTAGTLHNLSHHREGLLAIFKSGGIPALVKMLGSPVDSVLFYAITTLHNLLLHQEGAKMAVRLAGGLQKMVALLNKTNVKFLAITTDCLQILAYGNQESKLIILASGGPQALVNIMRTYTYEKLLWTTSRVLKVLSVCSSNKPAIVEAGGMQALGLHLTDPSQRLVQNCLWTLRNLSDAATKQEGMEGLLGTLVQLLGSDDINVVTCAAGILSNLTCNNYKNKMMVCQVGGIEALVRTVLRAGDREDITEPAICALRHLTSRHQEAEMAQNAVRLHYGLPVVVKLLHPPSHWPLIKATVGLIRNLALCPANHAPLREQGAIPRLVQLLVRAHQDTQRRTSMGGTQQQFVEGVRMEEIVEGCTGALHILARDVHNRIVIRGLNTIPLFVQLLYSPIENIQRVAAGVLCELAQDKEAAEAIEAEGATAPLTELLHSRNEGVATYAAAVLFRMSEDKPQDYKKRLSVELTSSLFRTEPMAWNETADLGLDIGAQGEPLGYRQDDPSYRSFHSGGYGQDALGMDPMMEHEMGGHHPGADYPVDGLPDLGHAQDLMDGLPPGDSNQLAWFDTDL
Assay: Fluorescence polarization IC50 (beta-catenin / 5FAM-TCF4 10-53 competition)
Type: binding
Conditions: fluorescence polarization; read-out: beta-Catenin FP IC50

IC50 | Compound
8830 nM | CC(=O)N1CCC[C@]12CC=CCCCC1(CCCC=CCCCOC(=O)N3CC[C@@](C(=O)N[C@@H](Cc4ccsc4)C(=O)N[C@@H](Cc4csc5ccccc45)C(=O)N[C@@H](CCC(N)=O)C(N)=O)(C3)NC(=O)[C@H](CC(N)=O)NC(=O)[C@H](CCc3ccccc3)NC(=O)[C@H](C)NC(=O)[C@H](C)NC(=O)[C@H]([C@@H](C)O)NC(=O)[C@H](CC(N)=O)NC1=O)NC(=O)[C@H](CC(C)(C)C)NC(=O)[C@H](CC(=O)O)NC2=O (stereo partly drawn) [I-2008, Ac-PL3-Asp-Npg-B5-Asn-Thr-Ala-Ala-hPhe-Asn-PyrS2-3Thi-BztA-Gln-NH2]
1480 nM | CC(=O)N1CCC[C@]12CC=CCCCC1(CCCC=CCCCOC(=O)N3CC[C@@](C(=O)N[C@@H](Cc4ccsc4)C(=O)N[C@@H](Cc4csc5ccccc45)C(=O)N[C@@H](CCC(N)=O)C(N)=O)(C3)NC(=O)[C@H](CC(N)=O)NC(=O)[C@H](Cc3cccc(C(F)(F)F)c3)NC(=O)[C@H](C)NC(=O)[C@H](C)NC(=O)[C@H]([C@@H](C)O)NC(=O)[C@H](CC(N)=O)NC1=O)NC(=O)[C@H](CC(C)(C)C)NC(=O)[C@H](CC(=O)O)NC2=O (stereo partly drawn) [I-2009, Ac-PL3-Asp-Npg-B5-Asn-Thr-Ala-Ala-3F3MeF-Asn-PyrS2-3Thi-BztA-Gln-NH2]
1970 nM | CC(=O)N1CCC[C@]12CC=CCCCC1(CCCC=CCCCOC(=O)N3CC[C@@](C(=O)N[C@@H](Cc4ccsc4)C(=O)N[C@@H](Cc4csc5ccccc45)C(=O)N[C@@H](CCC(N)=O)C(N)=O)(C3)NC(=O)[C@H](CC(N)=O)NC(=O)[C@H](Cc3cccc(C(F)(F)F)c3)NC(=O)[C@H](C)NC(=O)[C@H](C)NC(=O)[C@H]([C@@H](C)O)NC(=O)[C@H](CC(N)=O)NC1=O)NC(=O)[C@H](CC(C)(C)C)NC(=O)[C@H](CC(=O)O)NC2=O (stereo partly drawn) [I-2010, Ac-PL3-Asp-Npg-B5-Asn-Thr-Ala-Ala-3F3MeF-Asn-PyrS2-3Thi-BztA-Gln-NH2]
661 nM | CC(=O)N1CCC[C@]12CC=CCCCC1(CCCC=CCCCOC(=O)N3CC[C@@](C(=O)N[C@@H](Cc4ccsc4)C(=O)N[C@@H](Cc4csc5ccccc45)C(=O)N[C@@H](CCC(N)=O)C(N)=O)(C3)NC(=O)[C@H](CC(N)=O)NC(=O)[C@H](Cc3cccc(Cl)c3)NC(=O)[C@H](C)NC(=O)[C@H](C)NC(=O)[C@H]([C@@H](C)O)NC(=O)[C@H](CC(N)=O)NC1=O)NC(=O)[C@H](CC(C)(C)C)NC(=O)[C@H](CC(=O)O)NC2=O (stereo partly drawn) [I-2013, Ac-PL3-Asp-Npg-B5-Asn-Thr-Ala-Ala-3C1F-Asn-PyrS2-3Thi-BztA-Gln-NH2]
1180 nM | CC(=O)N1CCC[C@]12CC=CCCCC1(CCCC=CCCCOC(=O)N3CC[C@@](C(=O)N[C@@H](Cc4ccsc4)C(=O)N[C@@H](Cc4csc5ccccc45)C(=O)N[C@@H](CCC(N)=O)C(N)=O)(C3)NC(=O)[C@H](CC(N)=O)NC(=O)[C@H](Cc3cccc(Cl)c3)NC(=O)[C@H](C)NC(=O)[C@H](C)NC(=O)[C@H]([C@@H](C)O)NC(=O)[C@H](CC(N)=O)NC1=O)NC(=O)[C@H](CC(C)(C)C)NC(=O)[C@H](CC(=O)O)NC2=O (stereo partly drawn) [I-2014, Ac-PL3-Asp-Npg-B5-Asn-Thr-Ala-Ala-3C1F-Asn-PyrS2-3Thi-BztA-Gln-NH2]
522 nM | CC(=O)N1CCC[C@]12CC=CCCCC1(CCCC=CCCCOC(=O)N3CC[C@@](C(=O)N[C@@H](Cc4ccsc4)C(=O)N[C@@H](Cc4csc5ccccc45)C(=O)N[C@@H](CCC(N)=O)C(N)=O)(C3)NC(=O)[C@H](CC(N)=O)NC(=O)[C@H](Cc3ccc(O)cc3)NC(=O)[C@H](C)NC(=O)[C@H](C)NC(=O)[C@H]([C@@H](C)O)NC(=O)[C@H](CC(N)=O)NC1=O)NC(=O)[C@H](CC(C)(C)C)NC(=O)[C@H](CC(=O)O)NC2=O (stereo partly drawn) [I-2015, Ac-PL3-Asp-Npg-B5-Asn-Thr-Ala-Ala-Tyr-Asn-PyrS2-3Thi-BztA-Gln-NH2]
703 nM | CC(=O)N1CCC[C@]12CC=CCCCC1(CCCC=CCCCOC(=O)N3CC[C@@](C(=O)N[C@@H](Cc4ccsc4)C(=O)N[C@@H](Cc4csc5ccccc45)C(=O)N[C@@H](CCC(N)=O)C(N)=O)(C3)NC(=O)[C@H](CC(N)=O)NC(=O)[C@H](Cc3ccc(O)cc3)NC(=O)[C@H](C)NC(=O)[C@H](C)NC(=O)[C@H]([C@@H](C)O)NC(=O)[C@H](CC(N)=O)NC1=O)NC(=O)[C@H](CC(C)(C)C)NC(=O)[C@H](CC(=O)O)NC2=O (stereo partly drawn) [I-2016, Ac-PL3-Asp-Npg-B5-Asn-Thr-Ala-Ala-Tyr-Asn-PyrS2-3Thi-BztA-Gln-NH2]

More lines, now with the values behind:

Compound | IC50
CC(=O)N1CCC[C@]12CC=CCCCC1(CCCC=CCCCOC(=O)N3CC[C@@](C(=O)N[C@@H](Cc4ccsc4)C(=O)N[C@@H](Cc4csc5ccccc45)C(=O)N[C@@H](CCC(N)=O)C(N)=O)(C3)NC(=O)[C@H](CC(N)=O)NC(=O)[C@H](Cc3ccccc3)NC(=O)[C@H](C)NC(=O)[C@H](CCCCNC(C)C)NC(=O)[C@H]([C@@H](C)O)NC(=O)[C@H](CC(N)=O)NC1=O)NC(=O)[C@H](CC(C)(C)C)NC(=O)[C@H](CC(=O)O)NC2=O (stereo partly drawn) [I-2004, Ac-PL3-Asp-Npg-B5-Asn-Thr-iPrLys-Ala-Phe-Asn-PyrS2-3Thi-BztA-Gln-NH2] | 227 nM
CC(=O)N1CCC[C@]12CC=CCCCC1(CCCC=CCCCOC(=O)N3CC[C@@](C(=O)N[C@@H](Cc4ccsc4)C(=O)N[C@@H](Cc4csc5ccccc45)C(=O)N[C@@H](CCC(N)=O)C(N)=O)(C3)NC(=O)[C@H](CC(N)=O)NC(=O)[C@H](Cc3ccccc3)NC(=O)[C@H](C)NC(=O)[C@H](CCCCNC(C)C)NC(=O)[C@H]([C@@H](C)O)NC(=O)[C@H](CC(N)=O)NC1=O)NC(=O)[C@H](CC(C)(C)C)NC(=O)[C@H](CC(=O)O)NC2=O (stereo partly drawn) [I-2005, Ac-PL3-Asp-Npg-B5-Asn-Thr-iPrLys-Ala-Phe-Asn-PyrS2-3Thi-BztA-Gln-NH2] | 357 nM
CC(=O)N1CCC[C@]12CC=CCCCC1(CCCC=CCCCOC(=O)N3CC[C@@](C(=O)N[C@@H](Cc4ccsc4)C(=O)N[C@@H](Cc4csc5ccccc45)C(=O)N[C@@H](CCC(N)=O)C(N)=O)(C3)NC(=O)[C@H](CC(N)=O)NC(=O)[C@H](Cc3ccccc3)NC(=O)[C@H](CCCCNC(C)C)NC(=O)[C@H](C)NC(=O)[C@H]([C@@H](C)O)NC(=O)[C@H](CC(N)=O)NC1=O)NC(=O)[C@H](CC(C)(C)C)NC(=O)[C@H](CC(=O)O)NC2=O (stereo partly drawn) [I-2006, Ac-PL3-Asp-Npg-B5-Asn-Thr-Ala-iPrLys-Phe-Asn-PyrS2-3Thi-BztA-Gln-NH2] | 285 nM
CC(=O)N1CCC[C@]12CC=CCCCC1(CCCC=CCCCOC(=O)N3CC[C@](C(=O)N[C@@H](Cc4ccsc4)C(=O)N[C@@H](Cc4csc5ccccc45)C(=O)N[C@@H](CCC(N)=O)C(N)=O)(C3)NC(=O)[C@H](CC(N)=O)NC(=O)[C@H](Cc3ccccc3)NC(=O)[C@H](C)NC(=O)[C@H](C)NC(=O)[C@H](CC(=O)O)NC(=O)[C@H](CC(=O)O)NC1=O)NC(=O)[C@H](CC(C)(C)C)NC(=O)[C@H](CC(=O)O)NC2=O (stereo partly drawn) [I-2017, Ac-PL3-Asp-Npg-B5-Asp-Asp-Ala-Ala-Phe-Asn-PyrR2-3Thi-BztA-Gln-NH2] | 2050 nM
CC(=O)N1CCC[C@]12CC=CCCCC1(CCCC=CCCCOC(=O)N3CC[C@](C(=O)N[C@@H](Cc4ccsc4)C(=O)N[C@@H](Cc4csc5ccccc45)C(=O)N[C@@H](CCC(N)=O)C(N)=O)(C3)NC(=O)[C@H](CC(N)=O)NC(=O)[C@H](Cc3ccccc3)NC(=O)[C@H](C)NC(=O)[C@H](C)NC(=O)[C@H](CC(=O)O)NC(=O)[C@H](CC(=O)O)NC1=O)NC(=O)[C@H](CC(C)(C)C)NC(=O)[C@H](CC(=O)O)NC2=O (stereo partly drawn) [I-2018, Ac-PL3-Asp-Npg-B5-Asp-Asp-Ala-Ala-Phe-Asn-PyrR2-3Thi-BztA-Gln-NH2] | 1680 nM
